Reference: PMC10743653, “Combined In Silico and In Vitro Analyses to Assess the Anticancer Potential of Thiazolidinedione–Thiosemicarbazone Hybrid Molecules” (International Journal of Molecular Sciences, 2023)

How the values were obtained:
T98G cells [1] = experiment: MTT assay, T98G; assay type: cell-based, human; settings: for IC50: Homo sapiens, T98G, MTT, 24 h treatment, mean ± SD; for SI (selectivity index): IC50 CCD 841 CoTr divided by IC50 T98G
Procedure: (§1) The effects of TZD–TSCs 2–5 on the cellular viability of a panel of cell lines were investigated through an 3-(4,5-dimethylthiazol-2-yl)-2,5-diphenyl-2H-tetrazolium bromide (MTT) assay, following a 24 h treatment with the compounds. The panel consisted of three solid tumor cells: T98G (glioblastoma multiforme), HepG2 (hepatocellular carcinoma, epithelial), and HT29 (colon adenocarcinoma, epithelial), as well as noncancerous cells CCD 841 CoTr (normal colon, epithelial).
(§2) Primary single dose screenings of TZD–TSCs 2–5 were performed at a concentration of 200 μg/mL, and those that elicited a greater than 80% inhibition of cell proliferation were analyzed at several concentrations, to find their half-maximal inhibitory concentration (IC50). The IC50 values, reported as the mean ± SD in Table 2, indicate the concentration of the tested compound that inhibits the growth/viability of the cancer cell population by 50%. In this specific case of an MTT assay, which measures the activity of mitochondrial dehydrogenases (as an indicator of cell viability), the IC50 values stand for the concentration that inhibits the metabolic activity of cells by 50%.
(§3) Human colon adenocarcinoma cells, HT29 (ATCC no. HTB-38), derived from a grade I tumor, were cultured in roswell park memorial institute Medium (RPMI) 1640 medium, supplemented with 10% fetal calf serum (FCS) (GibcoTM, Paisley, UK) and antibiotics (100 U/mL penicillin and 100 μg/mL streptomycin) (Sigma, St. Louis, MO), at 37 °C in a humidified atmosphere with 5% CO2. Human normal colon epithelial cells, CCD 841 CoTr (ATCC no. CRL-1807), were cultured in RPMI 1640 + dulbecco’s modified eagle medium (DMEM) (1:1) medium (Sigma, St. Louis, MO), supplemented with 10% FCS and antibiotics, at 34 °C in a 5% CO2/95% air atmosphere. Human glioblastoma T98G cells were cultured in Dulbecco’s Modified Eagle’s Medium (DMEM) (Sigma Aldrich, St. Louis, MO, USA), supplemented with 10% fetal bovine serum (FBS), penicillin (100 U/mL), and streptomycin (100 μg/mL). Human hepatocellular carcinoma cells, HepG2, were maintained in Eagle’s Minimum Essential Medium, supplemented with 10% FBS, penicillin (100 U/mL), and streptomycin (100 μg/mL).
(§4) After 24 h of incubation of the cells with the tested compounds in 100 μL of culture medium, MTT solution (5 mg/mL, 25 μL/well) was added and incubated for an additional 3 h. The purple crystals of formazan which formed in the medium were solubilized overnight in 10% sodium dodecyl sulphate (SDS) in a 0.01 M HCl mixture. The product was quantified spectrophotometrically by measuring its absorbance at 570 nm using an Emax Microplate Reader (Molecular Devices Corporation, Menlo Park, CA, USA).

HepG2 cells = experiment: MTT assay, HepG2; assay type: cell-based, human; settings: for IC50: Homo sapiens, HepG2, MTT, 24 h treatment, mean ± SD; for SI (selectivity index): IC50 CCD 841 CoTr divided by IC50 HepG2
Procedure: as §1, §2, §3, §4

HT29 cells = experiment: MTT assay, HT29; assay type: cell-based, human; settings: for IC50: Homo sapiens, HT-29, HT29, MTT, 24 h treatment, mean ± SD; for SI (selectivity index): IC50 CCD 841 CoTr divided by IC50 HT29
Procedure: as §1, §2, §3, §4

CCD 841 CoTr cells = experiment: MTT assay, normal colon epithelial cells; assay type: cell-based; settings: Homo sapiens, CCD 841 CoTr (noncancerous), 24 h treatment, mean ± SD
Procedure: as §1, §2, §3, §4

T98G cells [2] = experiment: Cell migration (wound healing) assay, T98G; assay type: cell-based, human; settings: 24 h; for Migration of cancer cells (wound healing): IC50 doses (2: 26.82 μM; 3: 28.34 μM); for Reduction in the migratory potential: ½ IC50 concentrations (2: 13.41 μM; 3: 14.17 μM)
Procedure: The possible anti-migratory effect of 2 and 3 was examined against HepG2 and T98G cells, which most effectively responded to TZD–TSC treatment. The ability of cells to cover the scratched area was monitored after 24 h of incubation with compounds 2 and 3. […] Thus, we can conclude that the anticancer potential of the investigated compounds is enriched by their anti-metastatic effect.
Cell migration ability was evaluated according to a wound healing assay. On the day of the experiment, HepG2 and T98G cells were collected from monolayers using trypsin/EDTA and seeded on 6-well plates at a density of 1 × 10^5 cells mL^−1. After 24 h, when the confluence of cells reached about 80%, a vertical linear scratch was created in the monolayer with a sterile pipette tip. The cells were washed three times with a phosphate-buffered saline (PBS) to remove all cellular debris. Subsequently, the cells were cultured in a serum-free medium, containing compounds 2 or 3 in the concentrations equal to their IC50 or ½ IC50 values, as examined for HepG2 and T98G cancer cell lines (data provided in Table 2).Images of the scratch were taken after 0 h and 24 h using an Olympus CKX53 microscope coupled with a XM10 digital camera (Olympus). The experiments were performed at least in duplicate. The scratch area at the beginning of the experiment (0 h) was considered to be 100%. The open wound area was measured with the NIH ImageJ software version 1.53t (Bethesda, Rockville, MD, USA). The percentage of wound closure was calculated using the following formula [81]: Wound closure (%)=open wound area at 0 h −open wound area at 24 h or 48 h/open wound area at 0 h×100%

T98G cells [3] = experiment: ECM cell invasion assay (colorimetric), T98G; assay type: cell-based, human
Procedure: The anti-invasion effects of 2 and 3 were examined using a Cell Invasion Assay Kit (ECM550, CHEMICON—Millipore Co., Billerica, MA, USA). In brief, 10^5 tumor cells were suspended in medium with 10% FBS and plated into the upper chamber, containing 8 μm pore size polycarbonate membrane precoated with ECMatrix, followed by filling the lower chamber with the same medium, enriched with the investigated compounds. Afterwards, cells were incubated for 24 h and allowed to invade towards the bottom chamber (with medium + 10% FBS). The non-invading cells on the upper membrane surface were removed with a cotton swab and the invasive cells, i.e., cells attached to the lower membrane surface, were stained with 0.1% crystal violet. For colorimetric quantitation, the stained cells were dissolved in 10% acetic acid (200 μL/well) and the obtained solution was transferred to a 96-well plate for spectrometric measurements, at a wavelength of 560 nm.

bacteria = test system: bacteria; set-up: method as in PMID 29701728; settings: in vitro antibacterial potency; cited from earlier work

| Compound | IC50 (T98G cells [1]) | SI (selectivity index) (T98G cells [1]) | IC50 (HepG2 cells) | SI (selectivity index) (HepG2 cells) | IC50 (HT29 cells) | SI (selectivity index) (HT29 cells) | IC50 (CCD 841 CoTr cells) | Migration of cancer cells (wound healing) (T98G cells [2]) | Reduction in the migratory potential (T98G cells [2]) | Invasion through artificial ECM model (T98G cells [3]; 1/10 IC50 to IC50, 24 h) | Invasion through artificial ECM model (T98G cells [3]; 1/10 of the IC50 doses, 24 h) | Minimal inhibitory concentrations (MICs) (bacteria) |
| --- | --- | --- | --- | --- | --- | --- | --- | --- | --- | --- | --- | --- |
| O=C(C=C1SC(=O)NC1=O)Oc1ccccc1C=NNC(=S)Nc1ccccc1Cl [TZD–TSC 2] | 26.8 ± 1.54 µM | 1.66 | 10.4 ± 0.72 µM | 4.30 | 43.9 ± 1.74 µM | 1.02 | 44.6 ± 2.91 µM | almost completely suppressed | > 90% | exhibited inhibitory effects | statistically significantly inhibited | 8.48 to 16.94 µM |
| O=C(C=C1SC(=O)NC1=O)Oc1ccccc1C=NNC(=S)Nc1cccc(Cl)c1 [TZD–TSC 3] | 28.3 ± 2.21 µM | 3.54 | 2.97 ± 0.39 µM | 33.80 | 78.3 ± 5.47 µM | 1.28 | 100 ± 4.82 µM | almost completely suppressed | > 90% | exhibited inhibitory effects | statistically significantly inhibited | 8.48 to 16.94 µM |
